Results on 18 compounds are retold here after US11999746B2, “Compounds” (GlaxoSmithKline Intellectual Property Development Limited, priority 2014, dated 2024).

For assay [1], the target named is T1, recombinant human Lp-PLA2 (Homo sapiens, UniProt Q13093).
T1 sequence (Q13093 22-441): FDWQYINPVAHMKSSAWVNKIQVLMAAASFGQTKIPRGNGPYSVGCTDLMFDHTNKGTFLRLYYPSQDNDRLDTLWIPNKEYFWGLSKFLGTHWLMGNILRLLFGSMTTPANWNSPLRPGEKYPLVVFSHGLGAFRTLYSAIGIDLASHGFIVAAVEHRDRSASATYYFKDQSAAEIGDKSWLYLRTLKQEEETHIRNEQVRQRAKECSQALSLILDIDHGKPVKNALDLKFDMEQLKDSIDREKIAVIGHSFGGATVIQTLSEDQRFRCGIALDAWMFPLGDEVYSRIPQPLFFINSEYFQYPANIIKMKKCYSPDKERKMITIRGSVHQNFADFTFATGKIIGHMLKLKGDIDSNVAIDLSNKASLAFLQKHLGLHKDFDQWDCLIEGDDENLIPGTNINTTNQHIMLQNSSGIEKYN
As to the kind of experiment: (1a) PED6 assay, recombinant human Lp-PLA2 (rhLp-PLA2). The assay is classed as biochemical. The conditions noted are these: Examples 1-167 and 413-430 were tested here, one experiment or average of multiple experiments, read-out: rhLp-PLA2 (pIC50) (converted). The text has this:
(1) Recombinant Human Lp-PLA2 Assays (rhLp-PLA2)
N-((6-(2,4-Dinitrophenyl)amino)-hexanoyl)-2-(4,4-difluoro-5,7-dimethyl-4-bora-3a,4a-diaza-s-indacene-3-pentanoyl)-1-hexadecanoyl-sn-glycero-3-phosphoethanolamine, triethylammonium salt (PED6) is a commercially available fluorescently-labeled phospholipid, which is commercially available from Invitrogene and Molecular Probes. There is a quenching […] and a Bodipy fluorescein (FL) group in the sn2 position. Upon cleavage with Lp-PLA2, the Bodipy FL group is liberated and then may result in an increase in fluorescence. Inhibitors of Lp-PLA2 therefore prevent this cleavage and no fluorescent increase is observed.
The PED6 assay was run as an unquenched 10 μL assay. The source plate containing the compounds to be tested was prepared by making 1:3 (by volume) serial dilution of the compounds within DMSO on 384-well microplate. Then, 0.01 μL of the compounds on compound source plate were transferred into 384 well Greiner 784076 (black) plates using ECHO liquid dispenser. 5 μL of recombinant human Lp-PLA2 enzyme (4 nM) rhLp-PLA2 in assay buffer of 50 mM HEPES, pH 7.4, 150 mM NaCl, 1 mM CHAPS) was added to each well of the plate. Plates were centrifuged for 10 sec at 500 rpm. After 30 minutes preincubation, 5 μL of substrate (4 μM PED6 [from 5 mM DMSO stock] in assay buffer of 50 mM HEPES, pH 7.4, 150 mM NaCl, 1 mM CHAPS) was added to 384 well Greiner 784076 (black) plates. Plates were centrifuged for 10 sec at 500 rpm. The plate was covered to protect it from light and incubated for 20 min at room temperature. The plates were read for fluorescence intensity at ex: 480/em: 540 using ViewLux microplate imager for Envision spectrofluroimeters. pIC50 data, curve and QC analysis was conducted by using XL fit module in Excel.

For assay [2], the target named is T2, Lp-PLA2 in human plasma (Homo sapiens, UniProt Q13093).
T2 construct: from tissue; host or cells: pooled human plasma
T2 sequence (Q13093 22-441): T1 sequence (Q13093 22-441)
As to the kind of experiment: (3a) Lp-PLA2 human plasma Thio-PAF assay. Particulars: (3a) Thio-PAF assay, pooled human plasma; Examples 1-265 and 413-430 were tested here; read-out: pIC50 in the Lp-PLA2 human plasma assay (converted). The assay is classed as biochemical. The source says:
(3) Lipoprotein-Associated Phospholipase A2 (Lp-PLA2) Human Plasma Assay
The human plasma assay utilizes a thioester analog of PAF (phosphatidylcholine), where hydrolysis yields to the formation of a phospholipid containing a free thiol group. The amount of thiol is quantitated continuously by reacting with CPM (7-diethylamino-3-(4′-maleimidylphenyl)-4-methylcoumarin), a maleimide which increases in fluoresence after Michael addition of thiols. This assay may detect the activity of Lp-PLA2 in human plasma, as determined by specific inhibition by Lp-PLA2 inhibitors.
The thio-PAF assay was run as a quenched 15 μL assay. Compounds source plate was prepared by making 1:3 (by volume) serial dilution of the compounds into pure DMSO on 384-well microplate. 0.01 μL of compounds on compound source plate were transferred to 384 well Greiner 784076 (black) low-volume plates by ECHO liquid dispenser. 8 μL pooled human plasma, which was previously aliquoted and frozen, was added. Plates were centrifuged for 10 sec at 500 rpm. After 30 minutes preincubation, 2 μL of substrate solution comprising 2.5 mM 2-thio-PAF [from ethanol stock], 32 μM CPM [from a DMSO stock] and 3.2 mM NEM (N-ethylmaleimide) [made fresh daily in DMSO] in assay buffer of 50 mM HEPES, pH 7.4, 150 mM NaCl, 1 mM CHAPS was added to 384 well Greiner 784076 (black) low-volume plates by BRAVO liquid handling station. After 2 mins, reaction was quenched with 5 μL of 5% aqueous trifluoroacetic acid (TFA). Plates were covered to protect from light and incubated for 40 min at room temperature. Plates were read at ex: 380/em: 485 using Envision microplate reader. PIC50 data, curve and QC analysis were conducted by using XLFit module in Excel.

Take `N#Cc1cc(F)cc(COc2cc3n(c(=O)n2)CC2CCCCN32)c1` (stereo not shown) [Example E15, 3-Fluoro-5-(((1-oxo-6,7,8,9,9a,10-hexahydro-1H-pyrido[1′,2′:3,4]imidazo[1,2-c]pyrimidin-3-yl)oxy)methyl)benzonitrile]: the IC50 in assay [1] is not above 100 nM; in assay [2], not above 10000 nM. As for `O=c1nc(OCc2cnc(Oc3ccc(Cl)c(C(F)(F)F)c3)c(F)c2)cc2n1CC1CCCN21` (stereo not shown) [Example E76, 3-((6-(4-Chloro-3-(trifluoromethyl)phenoxy)-5-fluoropyridin-3-yl)methoxy)-7,8,8a,9 tetra hydro pyrrolo[1′,2′:3,4]imidazo[1,2-c]pyrimidin-1(6H)-one], the IC50 in assay [1] was not above 100 nM; in assay [2] it was not above 10000 nM. Consider `O=c1nc(OCc2cc(F)c(Oc3ccnc(C(F)(F)F)c3)c(F)c2)cc2n1CC1OCCN21` (single isomer, unassigned) [Example E165, 6-((3,5-difluoro-4-((2-(trifluoromethyl)pyridin-4-yl)oxy)benzyl)oxy)-10,10a-dihydro-2H-oxazolo[3′,2′:3,4]imidazo[1,2-c]pyrimidin-8(3H)-one], for which the IC50 in assay [1] and in assay [2] was not above 100 nM in each case.

Take `Cn1cc(Oc2c(F)cc(COc3cc4n(c(=O)n3)CC3COCCN43)cc2F)cn1` (stereo not shown) [Example E108, 7-((3,5-Difluoro-4-((1-methyl-1H-pyrazol-4-yl)oxy)benzyl)oxy)-3,4,11,11a-tetrahydro pyrimido[6′,1′:2,3]imidazo[5,1-c][1,4]oxazin-9(1H)-one]: the IC50 in assay [1] and in assay [2] was not above 100 nM throughout. For `CCCn1cc(Oc2c(F)cc(COc3cc4n(c(=O)n3)C[C@@H]3COCN43)cc2F)cn1` [Example E156, (R)-6-((3,5-difluoro-4-((1-propyl-1H-pyrazol-4-yl)oxy)benzyl)oxy)-10,10a-dihydro-1H-oxazolo[3′,4′:3,4]imidazo[1,2-c]pyrimidin-8(3H)-one], the figures for the IC50 in assay [1] and in assay [2] were not above 100 nM and not above 10000 nM, respectively. On to `Cn1cc(Oc2c(F)cc(COc3cc4n(c(=O)n3)C[C@H]3CCOCN43)cc2F)cn1` [Example E137, (R)-3-((3,5-difluoro-4-((1-methyl-1H-pyrazol-4-yl)oxy)benzyl)oxy)-8,9,9a,10-tetrahydropyrimido[6′,1′:2,3]imidazo[1,5-c][1,3]oxazin-1(6H)-one], for which the IC50 in assay [1] is not above 100 nM; in assay [2], not above 10000 nM. The corresponding values for `O=c1nc(OCc2cc(F)c(Oc3ccnc(C(F)(F)F)c3)c(F)c2)cc2n1C[C@H]1COCCN21` [Example E113, (S)-7-((3,5-difluoro-4-((2-(trifluoromethyl)pyridin-4-yl)oxy)benzyl)oxy)-3,4, 11, 11a tetrahydropyrimido[6′,1′:2,3]imidazo[5,1-c][1,4]oxazin-9(1H)-one] are 0.0316 nM and not above 100 nM. Taken in the same sequence, the figures for `O=c1nc(OCc2cc(F)c(Oc3ccc(C(F)(F)F)nc3)c(F)c2)cc2n1C[C@H]1CCCN21` [Example E79, (R)-3-((3,5-difluoro-4-((6-(trifluoromethyl)pyridin-3-yl)oxy)benzyl)oxy)-7,8,8a,9-tetrahydro pyrrolo[1′,2′:3,4]imidazo[1,2-c]pyrimidin-1(6H)-one] were not above 1 nM and not above 100 nM.

Regarding `O=c1nc(OCc2cc(F)c(Oc3cncc(C(F)(F)F)c3)c(F)c2)cc2n1CC1CCCCN21` (stereo not shown) [Example E21, 3-((3,5-Difluoro-4-((5-(trifluoromethyl)pyridin-3-yl)oxy)benzyl)oxy)-6,7,8,9,9a,10-hexahydro-1H-pyrido[1′,2′:3,4]imidazo[1,2-c]pyrimidin-1-one], the IC50 in assay [1] is not above 1 nM; in assay [2], not above 100 nM. On to `O=c1nc(OCc2cccc(F)c2F)cc2n1C[C@H]1CCCCN21` [Example E56, (R)-3-((2,3-Difluorobenzyl)oxy)-6,7,8,9,9a,10-hexahydro-1H-pyrido[1′,2′:3,4]imidazo[1,2-c] pyrimidin-1-one], for which the IC50 in assay [1] was not above 100 nM; in assay [2], not above 10000 nM. The corresponding values for `Cn1cc(Oc2c(F)cc(COc3cc4n(c(=O)n3)C[C@H]3CCCN43)cc2F)cn1` [Example E66, (R)-3-((3,5-difluoro-4-((1-methyl-1H-pyrazol-4-yl)oxy)benzyl)oxy)-7,8,8a, 9-tetrahydro pyrrolo[1′,2′:3,4]imidazo[1,2-c]pyrimidin-1(6H)-one] are not above 100 nM and not above 10000 nM. Taken in the same sequence, the figures for `O=c1nc(OCc2cc(F)c(Oc3cnn(C(F)(F)F)c3)c(F)c2)cc2n1C[C@@H]1COCN21` [Example E154, (R)-6-((3,5-difluoro-4-((1-(trifluoromethyl)-1H-pyrazol-4-yl)oxy)benzyl)oxy)-10,10a-dihydro-1H-oxazolo[3′,4′:3,4]imidazo[1,2-c]pyrimidin-8(3H)-one] were not above 1 nM and not above 100 nM. The corresponding values for `Cn1cc(Oc2c(F)cc(COc3cc4n(c(=O)n3)C[C@H]3COCCN43)cc2F)cn1` [Example E114, (S)-7-((3,5-difluoro-4-((1-methyl-1H-pyrazol-4-yl)oxy)benzyl)oxy)-3,4,11,11a-tetrahydropyrimido[6′,1′:2,3]imidazo[5,1-c][1,4]oxazin-9(1H)-one] are not above 100 nM and not above 100 nM. Regarding `CN1CCN2c3cc(OCc4cc(F)c(Oc5ccnc(C(F)(F)F)c5)c(F)c4)nc(=O)n3CC2C1` (stereo not shown) [Example E166, 7-((3,5-Difluoro-4-((2-(trifluoromethyl)pyridin-4-yl)oxy)benzyl)oxy)-2-methyl-3,4,11,11a-tetrahydro-1H-pyrazino[1′,2′:3,4]imidazo[1,2-c]pyrimidin-9(2H)-one], the values for the IC50 in assay [1] and in assay [2] were not above 1 nM and not above 100 nM, respectively. Taken in the same sequence, the figures for `O=c1nc(OCc2cccc(F)c2F)cc2n1C[C@H]1COCCN21` [Example E127, (S)-7-((2,3-difluorobenzyl)oxy)-3,4,11,11a-tetrahydropyrimido[6′,1′:2,3]imidazo[5,1-c][1,4] oxazin-9(1H)-one] were not above 100 nM and not above 100 nM.

Consider `CN1c2cc(OCc3cccc(F)c3)nc(=O)n2CC12CCC2` [Example 413], for which the IC50 in assay [1] is not above 100 nM; in assay [2], not above 10000 nM. As to `O=c1nc(OCc2ccc(F)c(C(F)(F)F)c2)cc2n1CC1CCCCN21` (stereo not shown) [Example E13, 3-((4-Fluoro-3-(trifluoromethyl)benzyl)oxy)-6,7,8,9,9a,10-hexahydro-1H-pyrido-[1′,2′:3,4] imidazo[1,2-c]pyrimidin-1-one], the IC50 in assay [1] is not above 10000 nM. The same measure, in the same setting: the value for `O=c1nc(OCc2cc(F)c(Oc3ccnc(C(F)(F)F)c3)c(F)c2)cc2n1C[C@@H]1CCCN21` [Example E71, (S)-3-((3,5-difluoro-4-((2-(trifluoromethyl)pyridin-4-yl)oxy)benzyl)oxy)-7,8,8a, 9-tetra hydropyrrolo[1′,2′:3,4]imidazo[1,2-c]pyrimidin-1(6H)-one] was not above 1 nM.
